Legend:
[1] = system: Tyrosine-protein kinase ABL1 (Homo sapiens), P00519 [F317I]; details: Compound concentration 1000.0 nM
[2] = biological target: RAC-alpha serine/threonine-protein kinase (Homo sapiens) (UniProt P31749); details: Compound concentration 1000.0 nM
[3] = system: ALK tyrosine kinase receptor (Homo sapiens), Q9UM73 [C1156Y]; details: Compound concentration 1000.0 nM
[4] = biological target: Mitogen-activated protein kinase kinase kinase 5 (Homo sapiens) (UniProt Q99683); details: Compound concentration 1000.0 nM
[5] = biological target: Tyrosine-protein kinase BTK (Homo sapiens) (UniProt Q06187); details: Compound concentration 1000.0 nM
[6] = biological target: Calcium/calmodulin-dependent protein kinase type 1 (Homo sapiens) (UniProt Q14012); details: Compound concentration 1000.0 nM
[7] = biological target: Cyclin-dependent kinase 11B (Homo sapiens) (UniProt P21127); details: Compound concentration 1000.0 nM
[8] = biological target: Cyclin-dependent kinase 5 (Homo sapiens) (UniProt Q00535); details: Compound concentration 1000.0 nM
[9] = biological target: Cyclin-dependent kinase 8 (Homo sapiens) (UniProt P49336); details: Compound concentration 1000.0 nM
Sequence of Cyclin-dependent kinase 8 (Homo sapiens) (P49336 whole entry, canonical isoform): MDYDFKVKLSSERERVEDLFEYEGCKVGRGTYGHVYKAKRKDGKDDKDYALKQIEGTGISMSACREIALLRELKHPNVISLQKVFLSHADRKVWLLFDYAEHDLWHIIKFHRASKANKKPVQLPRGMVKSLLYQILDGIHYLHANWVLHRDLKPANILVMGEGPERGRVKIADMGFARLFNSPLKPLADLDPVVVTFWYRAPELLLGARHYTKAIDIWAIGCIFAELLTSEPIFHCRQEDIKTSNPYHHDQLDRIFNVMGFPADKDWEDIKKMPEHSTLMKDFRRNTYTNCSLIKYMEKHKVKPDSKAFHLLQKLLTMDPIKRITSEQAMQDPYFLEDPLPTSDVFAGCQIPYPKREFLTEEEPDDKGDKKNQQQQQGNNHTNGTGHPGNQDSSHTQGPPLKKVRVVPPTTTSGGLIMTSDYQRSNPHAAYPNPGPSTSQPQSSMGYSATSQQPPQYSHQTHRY

[10] = biological target: Casein kinase I isoform alpha (Homo sapiens) (UniProt P48729); details: Compound concentration 1000.0 nM
[11] = biological target: Casein kinase I isoform epsilon (Homo sapiens) (UniProt P49674); details: Compound concentration 1000.0 nM
[12] = biological target: Myotonin-protein kinase (Homo sapiens) (UniProt Q09013); details: Compound concentration 1000.0 nM
Sequence of Myotonin-protein kinase (Homo sapiens) (Q09013 whole entry): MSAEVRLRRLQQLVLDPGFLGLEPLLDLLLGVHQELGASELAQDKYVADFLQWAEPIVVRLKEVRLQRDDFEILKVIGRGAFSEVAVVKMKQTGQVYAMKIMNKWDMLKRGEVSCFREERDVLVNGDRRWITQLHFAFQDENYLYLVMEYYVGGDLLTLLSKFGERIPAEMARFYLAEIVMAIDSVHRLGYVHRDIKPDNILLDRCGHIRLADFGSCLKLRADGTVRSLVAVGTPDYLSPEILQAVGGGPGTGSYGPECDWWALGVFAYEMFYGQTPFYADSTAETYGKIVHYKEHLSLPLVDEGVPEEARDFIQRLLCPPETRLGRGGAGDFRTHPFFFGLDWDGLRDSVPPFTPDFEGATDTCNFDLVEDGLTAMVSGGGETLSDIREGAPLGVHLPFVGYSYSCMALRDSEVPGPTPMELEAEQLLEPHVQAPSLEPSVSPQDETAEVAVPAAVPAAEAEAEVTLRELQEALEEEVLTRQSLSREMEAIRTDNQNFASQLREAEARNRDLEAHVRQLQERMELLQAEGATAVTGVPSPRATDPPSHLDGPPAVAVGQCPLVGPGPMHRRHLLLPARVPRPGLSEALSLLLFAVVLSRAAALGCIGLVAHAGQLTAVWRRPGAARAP

[13] = biological target: Dual specificity tyrosine-phosphorylation-regulated kinase 1A (Homo sapiens) (UniProt Q13627); details: Compound concentration 1000.0 nM
[14] = system: Epidermal growth factor receptor (Homo sapiens), P00533 [UNDEFINED MUTATION]; details: Compound concentration 1000.0 nM
[15] = system: Epidermal growth factor receptor (Homo sapiens), P00533 [T790M]; details: Compound concentration 1000.0 nM
[16] = biological target: Eukaryotic translation initiation factor 2-alpha kinase 1 (Homo sapiens) (UniProt Q9BQI3); details: Compound concentration 1000.0 nM
[17] = biological target: Receptor tyrosine-protein kinase erbB-3 (Homo sapiens) (UniProt P21860); details: Compound concentration 1000.0 nM
Sequence of Receptor tyrosine-protein kinase erbB-3 (Homo sapiens) (P21860 whole entry): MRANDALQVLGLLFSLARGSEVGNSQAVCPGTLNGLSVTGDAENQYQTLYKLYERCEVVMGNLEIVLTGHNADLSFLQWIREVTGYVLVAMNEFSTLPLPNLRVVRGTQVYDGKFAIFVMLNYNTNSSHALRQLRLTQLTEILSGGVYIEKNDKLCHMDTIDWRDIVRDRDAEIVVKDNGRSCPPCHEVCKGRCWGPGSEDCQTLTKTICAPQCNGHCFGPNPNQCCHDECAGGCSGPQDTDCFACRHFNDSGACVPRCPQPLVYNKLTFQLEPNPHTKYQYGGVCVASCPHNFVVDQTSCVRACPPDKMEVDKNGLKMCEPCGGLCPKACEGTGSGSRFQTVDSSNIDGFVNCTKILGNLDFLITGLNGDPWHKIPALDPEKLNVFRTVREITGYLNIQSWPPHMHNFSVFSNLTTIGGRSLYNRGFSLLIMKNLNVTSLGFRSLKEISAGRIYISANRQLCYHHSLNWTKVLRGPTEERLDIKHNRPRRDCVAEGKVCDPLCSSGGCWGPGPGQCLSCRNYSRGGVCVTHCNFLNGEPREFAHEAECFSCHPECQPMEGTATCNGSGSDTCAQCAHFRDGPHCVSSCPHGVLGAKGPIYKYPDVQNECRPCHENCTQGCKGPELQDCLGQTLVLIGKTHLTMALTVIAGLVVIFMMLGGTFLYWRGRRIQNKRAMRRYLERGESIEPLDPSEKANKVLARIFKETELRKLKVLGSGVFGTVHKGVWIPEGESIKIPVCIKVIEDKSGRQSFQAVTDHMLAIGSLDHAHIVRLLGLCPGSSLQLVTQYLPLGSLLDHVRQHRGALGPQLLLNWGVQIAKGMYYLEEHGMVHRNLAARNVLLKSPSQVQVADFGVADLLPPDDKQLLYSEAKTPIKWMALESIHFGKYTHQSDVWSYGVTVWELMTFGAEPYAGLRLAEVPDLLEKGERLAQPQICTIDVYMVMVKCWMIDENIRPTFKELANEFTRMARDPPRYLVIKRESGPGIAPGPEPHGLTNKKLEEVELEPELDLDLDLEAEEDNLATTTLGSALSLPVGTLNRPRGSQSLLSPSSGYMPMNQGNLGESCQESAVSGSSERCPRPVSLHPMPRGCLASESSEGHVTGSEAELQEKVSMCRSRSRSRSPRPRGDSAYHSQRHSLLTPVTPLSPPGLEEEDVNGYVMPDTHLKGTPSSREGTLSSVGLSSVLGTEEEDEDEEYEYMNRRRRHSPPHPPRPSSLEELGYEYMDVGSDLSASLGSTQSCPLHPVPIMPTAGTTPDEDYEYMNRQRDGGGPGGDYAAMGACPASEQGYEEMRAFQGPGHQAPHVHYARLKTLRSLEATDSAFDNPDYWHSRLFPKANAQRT

[18] = system: Receptor-type tyrosine-protein kinase FLT3 (Homo sapiens), P36888 [UNDEFINED MUTATION]; details: Compound concentration 1000.0 nM
[19] = biological target: Homeodomain-interacting protein kinase 1 (Homo sapiens) (UniProt Q86Z02); details: Compound concentration 1000.0 nM
[20] = system: Mast/stem cell growth factor receptor Kit (Homo sapiens), P10721 [A829P]; details: Compound concentration 1000.0 nM
[21] = biological target: Tyrosine-protein kinase Lck (Homo sapiens) (UniProt P06239); details: Compound concentration 1000.0 nM
[22] = biological target: Leukocyte tyrosine kinase receptor (Homo sapiens) (UniProt P29376); details: Compound concentration 1000.0 nM
[23] = biological target: Mitogen-activated protein kinase kinase kinase kinase 3 (Homo sapiens) (UniProt Q8IVH8); details: Compound concentration 1000.0 nM
[24] = system: Hepatocyte growth factor receptor (Homo sapiens), P08581 [M1250T]; details: Compound concentration 1000.0 nM
[25] = biological target: MAP kinase-interacting serine/threonine-protein kinase 2 (Homo sapiens) (UniProt Q9HBH9); details: Compound concentration 1000.0 nM
[26] = biological target: Mitogen-activated protein kinase kinase kinase 11 (Homo sapiens) (UniProt Q16584); details: Compound concentration 1000.0 nM
[27] = biological target: Serine/threonine-protein kinase 38 (Homo sapiens) (UniProt Q15208); details: Compound concentration 1000.0 nM
Sequence of Serine/threonine-protein kinase 38 (Homo sapiens) (Q15208 2-465 limits assumed): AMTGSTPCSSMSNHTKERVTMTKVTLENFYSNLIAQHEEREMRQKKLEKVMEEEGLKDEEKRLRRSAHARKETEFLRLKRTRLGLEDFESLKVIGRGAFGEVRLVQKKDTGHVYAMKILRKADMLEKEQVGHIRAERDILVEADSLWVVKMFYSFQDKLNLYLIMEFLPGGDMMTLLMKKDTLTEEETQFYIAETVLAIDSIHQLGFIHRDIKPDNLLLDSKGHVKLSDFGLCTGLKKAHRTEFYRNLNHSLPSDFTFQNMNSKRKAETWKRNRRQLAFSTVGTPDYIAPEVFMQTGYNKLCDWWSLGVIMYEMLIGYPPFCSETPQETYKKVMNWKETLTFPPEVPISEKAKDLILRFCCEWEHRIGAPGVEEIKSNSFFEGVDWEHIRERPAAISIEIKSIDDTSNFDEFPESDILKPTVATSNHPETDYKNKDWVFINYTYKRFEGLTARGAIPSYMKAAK

[28] = biological target: Mitogen-activated protein kinase 12 (Homo sapiens) (UniProt P53778); details: Compound concentration 1000.0 nM
[29] = biological target: Serine/threonine-protein kinase PAK 1 (Homo sapiens) (UniProt Q13153); details: Compound concentration 1000.0 nM
[30] = biological target: Serine/threonine-protein kinase PAK 5 (Homo sapiens) (UniProt Q9P286); details: Compound concentration 1000.0 nM
[31] = biological target: Cyclin-dependent kinase 18 (Homo sapiens) (UniProt Q07002); details: Compound concentration 1000.0 nM
[32] = biological target: Platelet-derived growth factor receptor alpha (Homo sapiens) (UniProt P16234); details: Compound concentration 1000.0 nM
[33] = biological target: Phosphorylase b kinase gamma catalytic chain, skeletal muscle/heart isoform (Homo sapiens) (UniProt Q16816); details: Compound concentration 1000.0 nM
[34] = biological target: cAMP-dependent protein kinase catalytic subunit PRKX (Homo sapiens) (UniProt P51817); details: Compound concentration 1000.0 nM
[35] = biological target: SNF-related serine/threonine-protein kinase (Homo sapiens) (UniProt Q9NRH2); details: Compound concentration 1000.0 nM
Sequence of SNF-related serine/threonine-protein kinase (Homo sapiens) (Q9NRH2 whole entry): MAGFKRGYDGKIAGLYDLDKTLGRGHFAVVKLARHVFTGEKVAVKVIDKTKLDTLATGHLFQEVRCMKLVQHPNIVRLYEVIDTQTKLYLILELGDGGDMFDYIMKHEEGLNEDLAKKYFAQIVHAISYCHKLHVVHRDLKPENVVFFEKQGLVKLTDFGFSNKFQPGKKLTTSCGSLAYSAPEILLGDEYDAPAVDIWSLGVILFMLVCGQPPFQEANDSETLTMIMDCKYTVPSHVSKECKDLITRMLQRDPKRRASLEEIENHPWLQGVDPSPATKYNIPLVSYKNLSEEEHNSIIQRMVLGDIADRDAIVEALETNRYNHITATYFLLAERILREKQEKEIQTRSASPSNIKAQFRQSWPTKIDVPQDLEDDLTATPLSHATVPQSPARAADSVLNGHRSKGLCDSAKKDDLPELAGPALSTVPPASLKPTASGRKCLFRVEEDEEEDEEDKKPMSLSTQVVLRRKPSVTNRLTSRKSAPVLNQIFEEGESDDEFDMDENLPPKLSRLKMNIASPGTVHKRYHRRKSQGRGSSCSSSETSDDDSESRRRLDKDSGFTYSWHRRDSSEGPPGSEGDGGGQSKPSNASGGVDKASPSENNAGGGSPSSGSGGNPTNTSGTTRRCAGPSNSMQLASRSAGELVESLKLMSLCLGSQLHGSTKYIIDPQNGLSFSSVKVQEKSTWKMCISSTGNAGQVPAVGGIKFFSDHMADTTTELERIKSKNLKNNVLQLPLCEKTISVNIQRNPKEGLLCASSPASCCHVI

[36] = biological target: SRSF protein kinase 2 (Homo sapiens) (UniProt P78362); details: Compound concentration 1000.0 nM
[37] = biological target: Serine/threonine-protein kinase TAO3 (Homo sapiens) (UniProt Q9H2K8); details: Compound concentration 1000.0 nM
Sequence of Serine/threonine-protein kinase TAO3 (Homo sapiens) (Q9H2K8 whole entry): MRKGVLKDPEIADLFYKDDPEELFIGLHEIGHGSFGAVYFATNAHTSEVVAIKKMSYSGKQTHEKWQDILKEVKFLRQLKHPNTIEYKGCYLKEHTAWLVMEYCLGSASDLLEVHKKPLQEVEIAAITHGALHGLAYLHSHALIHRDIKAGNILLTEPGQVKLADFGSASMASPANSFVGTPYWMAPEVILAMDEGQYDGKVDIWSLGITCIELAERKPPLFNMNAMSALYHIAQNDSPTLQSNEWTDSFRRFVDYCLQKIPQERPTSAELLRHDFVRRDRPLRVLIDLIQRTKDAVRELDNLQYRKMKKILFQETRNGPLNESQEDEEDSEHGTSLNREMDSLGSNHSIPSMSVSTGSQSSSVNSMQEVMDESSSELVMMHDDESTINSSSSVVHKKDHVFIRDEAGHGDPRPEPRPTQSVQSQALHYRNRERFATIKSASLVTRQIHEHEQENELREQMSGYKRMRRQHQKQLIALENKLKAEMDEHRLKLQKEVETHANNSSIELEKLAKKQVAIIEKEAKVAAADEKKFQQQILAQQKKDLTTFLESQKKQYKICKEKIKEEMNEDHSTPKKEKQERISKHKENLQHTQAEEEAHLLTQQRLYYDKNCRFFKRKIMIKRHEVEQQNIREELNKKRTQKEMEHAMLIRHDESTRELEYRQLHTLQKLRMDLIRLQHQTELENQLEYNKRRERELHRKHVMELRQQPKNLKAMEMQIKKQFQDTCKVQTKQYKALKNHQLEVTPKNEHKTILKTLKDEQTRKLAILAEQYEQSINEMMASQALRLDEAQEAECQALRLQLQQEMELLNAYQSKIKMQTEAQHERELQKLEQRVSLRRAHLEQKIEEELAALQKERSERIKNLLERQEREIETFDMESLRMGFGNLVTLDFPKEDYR

[38] = biological target: Serine/threonine-protein kinase ULK1 (Homo sapiens) (UniProt O75385); details: Compound concentration 1000.0 nM
[39] = biological target: Serine/threonine-protein kinase WNK1 (Homo sapiens) (UniProt Q9H4A3); details: Compound concentration 1000.0 nM
[40] = biological target: Serine/threonine-protein kinase 32A (Homo sapiens) (UniProt Q8WU08); details: Compound concentration 1000.0 nM
[41] = biological target: Serine/threonine-protein kinase 32B (Homo sapiens) (UniProt Q9NY57); details: Compound concentration 1000.0 nM
[42] = biological target: 5-hydroxytryptamine receptor 1A (Homo sapiens) (UniProt P08908); details: Compound concentration 10.0 uM
Sequence of 5-hydroxytryptamine receptor 1A (Homo sapiens) (P08908 whole entry): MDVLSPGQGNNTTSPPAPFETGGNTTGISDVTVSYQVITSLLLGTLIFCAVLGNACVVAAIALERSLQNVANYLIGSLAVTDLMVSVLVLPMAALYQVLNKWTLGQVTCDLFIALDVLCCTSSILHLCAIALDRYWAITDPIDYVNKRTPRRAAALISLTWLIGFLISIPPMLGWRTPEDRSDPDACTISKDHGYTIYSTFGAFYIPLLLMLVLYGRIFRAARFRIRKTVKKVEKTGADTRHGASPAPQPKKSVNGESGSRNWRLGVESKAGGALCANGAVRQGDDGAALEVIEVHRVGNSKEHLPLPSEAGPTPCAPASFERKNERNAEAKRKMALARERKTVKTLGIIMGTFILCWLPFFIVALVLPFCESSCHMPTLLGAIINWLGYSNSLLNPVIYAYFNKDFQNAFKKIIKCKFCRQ

[43] = biological target: Muscarinic acetylcholine receptor M3 (Homo sapiens) (UniProt P20309); details: Compound concentration 10.0 uM
[44] = biological target: GABA-A receptor; anion channel (Rattus norvegicus) (UniProt O09028+P15431+P18506+P18508+P19969+P20236+P23574+P23576+P28471+P28473+P30191+P62813+P63079+P63138+Q91ZM7+Q9ES14); details: Compound concentration 10.0 uM

Compound: CC(C)(O)c1cncc(-c2nc3ccc(F)cc3n2C2CC2)c1 [MSD-CYP11B2]
- residual activity [1]: 100%
- residual activity [2]: 100%
- residual activity [3]: 100%
- residual activity [4]: 100%
- residual activity [5]: 83%
- residual activity [6]: 100%
- residual activity [7]: 100%
- residual activity [8]: 100%
- residual activity [9]: 95%
- residual activity [10]: 84%
- residual activity [11]: 100%
- residual activity [12]: 71%
- residual activity [13]: 48%
- residual activity [14]: 100%
- residual activity [15]: 90%
- residual activity [16]: 100%
- residual activity [17]: 80%
- residual activity [18]: 100%
- residual activity [19]: 97%
- residual activity [20]: 100%
- residual activity [21]: 100%
- residual activity [22]: 100%
- residual activity [23]: 100%
- residual activity [24]: 100%
- residual activity [25]: 100%
- residual activity [26]: 100%
- residual activity [27]: 99%
- residual activity [28]: 88%
- residual activity [29]: 100%
- residual activity [30]: 100%
- residual activity [31]: 100%
- residual activity [32]: 100%
- residual activity [33]: 100%
- residual activity [34]: 100%
- residual activity [35]: 86%
- residual activity [36]: 86%
- residual activity [37]: 100%
- residual activity [38]: 100%
- residual activity [39]: 100%
- residual activity [40]: 100%
- residual activity [41]: 97%
- inhibition [42]: 1.22%
- inhibition [43]: 1.04%
- inhibition [44]: 16.6%

Compound: FC(F)(F)c1ccc2c(c1)nc(-c1cccnc1)n2C1CC1 [MSD-CYP11B2-Negative-control]
- residual activity [1]: 100%
- residual activity [2]: 100%
- residual activity [3]: 100%
- residual activity [4]: 96%
- residual activity [5]: 93%
- residual activity [6]: 100%
- residual activity [7]: 100%
- residual activity [8]: 100%
- residual activity [9]: 100%
- residual activity [10]: 90%
- residual activity [11]: 100%
- residual activity [12]: 92%
- residual activity [13]: 100%
- residual activity [14]: 100%
- residual activity [15]: 87%
- residual activity [16]: 100%
- residual activity [17]: 77%
- residual activity [18]: 100%
- residual activity [19]: 100%
- residual activity [20]: 100%
- residual activity [21]: 100%
- residual activity [22]: 100%
- residual activity [23]: 100%
- residual activity [24]: 100%
- residual activity [25]: 100%
- residual activity [26]: 100%
- residual activity [27]: 93%
- residual activity [28]: 100%
- residual activity [29]: 100%
- residual activity [30]: 100%
- residual activity [31]: 100%
- residual activity [32]: 100%
- residual activity [33]: 100%
- residual activity [34]: 100%
- residual activity [35]: 82%
- residual activity [36]: 93%
- residual activity [37]: 100%
- residual activity [38]: 100%
- residual activity [39]: 100%
- residual activity [40]: 89%
- residual activity [41]: 100%
- inhibition [42]: 0.44%
- inhibition [43]: -1.22%
- inhibition [44]: 2.02%
